We go through eight compounds from patent US7223787B2, “Prenylation inhibitors reduce host cell permissiveness to viral replication” (priority 2003, dated 2007).

Data set [1] deals with HCV RNA replication. In words: HCV RNA replicon levels in Huh7-K2040 cells (subgenomic replicon). To be noted: for rescue of HCV RNA levels from the suppressive action of lovastatin: lovastatin-treated Huh7-K2040 cells supplemented with the metabolite, 24-hour culture; for viral RNA levels (effect in words): 24-hour culture period. For orientation: A replicon is a self-replicating genome or part of one, used to study replication in cells.

The subject of data set [2] is Huh7-K2040 cells. To be noted: for cellular DNA synthesis / cellular mRNA synthesis / levels: 24 hours.
From the text: (§2) We therefore examined the influence of lovastatin upon the synthesis of DNA, mRNA, and protein in Huh7-K2040 cells.
Data set [3] relates to HCV replicon RNA. To be noted: hepatoma cells, recent studies (ref. 23); cited from earlier work.
The subject of data set [4] is HCV RNA replication. In words: HCV RNA replicon levels in Huh7-C5B3 cells (genome-length replicon).
Data set [5] concerns West Nile virus. In words: WN virus replication in a mouse model. The class given is in vivo.
From the text: Virulence in mice. Mice are housed in an environmentally controlled room under biosafety level 3 conditions and are given food and water ad libitum. Female outbred CD-1 mice (Charles River Laboratories, Wilmington, Mass.) are obtained at 5 weeks of age and acclimatized for 1 week. All mice are 6 weeks of age at the start of the experiment. Eight mice per group are inoculated with diluent alone or with 10^2 PFU of virus subcutaneously (s.c.) in the left rear footpad. Diluent is PBS (endotoxin-free) supplemented with 1% FBS. Mice are evaluated clinically and weighed daily for 2 weeks, then monitored daily and weighed thrice weekly for 2 more weeks. Observed clinical signs include ruffled fur, paresis, hindleg paralysis, and tremors. Morbidity is defined as exhibition of greater than 10% weight loss or clinical signs for 2 or more days. Mice are euthanized if they become moribund.
Data set [6] concerns West Nile virus. In words: WN virus replication in mammalian cell types. The class given is cell-based. To be noted: several mammalian cell types.
Method: Cells and virus. Vero (ATCC CCL-81) cells are grown in minimal essential medium (MEM) supplemented with 10% fetal bovine serum (FBS). BHK-21/WI2 (BHK-21) and Aedes albopictus C6/36 (C6/36) (ATCC CRL-1660) cells are grown in Dulbecco's modification of MEM with 10% FBS and 0.1 mM nonessential amino acids. Antibiotics are added to all media at 10 U/ml of penicillin and 10 μg/ml of streptomycin. Cells are maintained in 5% CO2 at 37° C. (Vero and BHK-21) or 28° C. (C6/36). West Nile viruses are obtained from the World Arbovirus Reference Collection and stocks are grown and plaque titrated in Vero cells. Prenylation inhibitors examined over a series of 10-fold dilutions.
IFA. Indirect immunofluorescence assays (IFA) are used to detect viral protein expression in WNV RNA-transfected BHK-21 cells. After electroporation, approximately 10^5 transfected cells are spotted onto 10-mm glass coverslips. Cells on coverslips are analyzed by IFA at various times posttransfection for viral protein synthesis. […] The coverslips are washed with PBS, mounted to a slide using fluorescent mounting medium (KPL), and observed under a fluorescence microscope equipped with a video documentation system (Zeiss, Thornwood, N.Y.).
Specific infectivity assay. […] Plaques are counted after incubation of the plates for another 12 to 24 h, and the specific infectivity is calculated as the number of PFU per microgram of RNA. […]
Data set [7] has as its system Huh7-K2040 cells. In words: Cell viability of treated cultures. As to conditions: cultures treated over 7 days, at the concentrations used.
From the text: as §2
Data set [8] relates to HCV RNA replication. In words: HCV RNA replicon levels in Huh7-HP cells (subgenomic replicon).
Data set [9] relates to Rap1a. In words: SDS-PAGE and blot of Rap1a prenylation in Huh7-K2040 cells. In kind it is cell-based, human.
For data set [10], the system named is HCV replication complex (NS5A). In words: Immunocytochemical NS5A staining of the HCV replication complex. The class given is cell-based, hepatitis C virus. From the text:
HCV Replication Complex Requires Protein Geranylgeranylation. Among other functions, geranylgeranylated proteins mediate the interaction of membranes with cytoskeletal proteins (8). Such interactions are likely to be required for the formation of the ER-associated HCV replication complex, which contains the viral RNA as well as the nonstructural viral proteins (1, 2). […] To test whether lovastatin affects the replication complex, we stained cells with an antibody to NS5A and an FITC-labeled second antibody. In the absence of lovastatin treatment, much of the NS5A was localized in a punctate pattern consistent with the ER localization of the HCV replication complex.

For data set [11], the system named is H-Ras(S189L). In words: Prenylation of mutant H-Ras(S189L), substrate for GGTase I (blot). The class given is cell-based. As to conditions: 10 μM. From the text:
(§1) In contrast, FPTI-III had no effect on viral RNA levels. To confirm the specificity of GGTI-286 and FPTI-III action, we evaluated the effect of each compound on the prenylation of wild-type H-Ras, which is normally farnesylated, and a mutant H-Ras(S189L) in which the carboxyl-terminal amino acid has been changed to leucine, making it a substrate for GGTase 1 (21). […] Thus, the inhibitory activity of GGTI-286 on HCV RNA replication must be due to its action against GGTase I, and not farnesyl transferase.

The subject of data set [12] is H-Ras. In words: Prenylation of wild-type H-Ras (blot). In kind it is cell-based. As to conditions: 10 μM.
From the text: as §1

Take `CC(C)=CCCC(C)=CCCC(C)=CCO` [farnesol]: in data set [1], the “rescue of HCV RNA levels from the suppressive action of lovastatin” value (“rescue of HCV RNA levels” below) is given as “neither farnesol nor oleate, mediated a dose-dependent rescue”.
For the compound `C[C@@]1(CO)[C@H](O)CC[C@@]2(C)[C@H]1CC[C@H]1C[C@@H]3C[C@@]12CC[C@]3(O)CO` [aphidicolin], in data set [2], the “global rate of cellular protein synthesis” value (“global rate” below) is “moderately suppressed”, the “cellular DNA synthesis” value is “blocked DNA synthesis” and the “cellular mRNA synthesis / levels” value is listed as “did not affect”. Besides, the “viral RNA levels (effect in words)” value in data set [1] (Huh7-K2040 cells) is reported as “did not affect”.
With `C[C@H](CCCC(C)(C)O)[C@H]1CC[C@H]2[C@@H]3CC=C4C[C@@H](O)CC[C@]4(C)[C@H]3CC[C@]12C` [25-hydroxycholesterol], in data set [3], the “level of HCV replicon RNA” value is recorded as “reduce the level of HCV replicon RNA”.
For the compound `NC(=O)NO` [hydroxyurea], in [2], the “global rate” value was “moderately suppressed”, the “cellular DNA synthesis” value is “blocked DNA synthesis” and the “cellular mRNA synthesis / levels” value was “did not affect”. In addition, the “viral RNA levels (effect in words)” value in [1] (Huh7-K2040 cells) was “did not affect”.
`CC(O)(CCO)CC(=O)O` (centres unmarked) [mevalonate]: in [1], the “rescue of HCV RNA levels” value is given as “dose-dependent rescue”.
Take `CC[C@H](C)C(=O)O[C@H]1C[C@@H](C)C=C2C=C[C@H](C)[C@H](CC[C@@H]3C[C@@H](O)CC(=O)O3)[C@H]21` [lovastatin]: the “levels of viral proteins” value in data set [4] and in data set [8] was “reduced the levels of viral proteins” in each case. For the same compound, the WN virus replication entry in data set [5] and in [6] was “disrupted” throughout. Moreover, the cell viability result in data set [7] is given as “no significant effects”. Further, the “prenylation state of Rap1a” value in data set [9] (Huh7-K2040 cells) was “caused the appearance of a slow-migrating form”. Also, in data set [2], the “global rate” value is reported as “moderately suppressed”. Further, the “cellular DNA synthesis” value in data set [2] is on record as “did not significantly affect”. Further, the “cellular mRNA synthesis / levels” value in data set [2] was “did not significantly affect”. The “reduction of HCV RNA levels” value in data set [1] (Huh7-K2040 cells, after 72 hours) is given as “more than 95%”; in [1] (Huh7-K2040 cells, after a 24-hour treatment), “more than 70%”. Further, in data set [1] (Huh7-K2040 cells, over a 72-hour culture period), the viral protein levels result is “reduction in viral protein levels”. Besides, in [10] (treatment for 48 hours), the “punctate NS5A staining pattern” value is given as “largely disappeared”.
On to `COC(=O)[C@H](CC(C)C)NC(=O)c1ccc(NC[C@@H](N)CS)cc1-c1ccccc1` [GGTI-286], for which the “prenylation (geranylgeranylation) of H-Ras(S189L)” value in data set [11] is on record as “inhibiting farnesylation of H-Ras as well as geranylgeranylation of H-Ras(S189L)”. Further, the “prenylation (farnesylation) of wild-type H-Ras” value in data set [12] was “inhibiting farnesylation of H-Ras”. In data set [9] (10 μM), the “prenylation of endogenous Rap1a” value is reported as “clear-cut inhibitory effects”. In data set [1] (Huh7-K2040 cells, increasing concentrations of inhibitor), the “level of HCV RNA” value is on record as “dose-dependent decrease”. Besides, the “redistribution of HCV NS5A protein from punctate to diffuse pattern” value in data set [10] is listed as “produced a redistribution”.
Take `CC(C)=CCC/C(C)=C/CC/C(C)=C/CC/C(C)=C/CO` [geranylgeraniol]: the “restoration of Rap1a geranylgeranylation” value in data set [9] (added to lovastatin-treated Huh7-K2040 cells) is given as “eliminated the upper band”. The “rescue of HCV RNA levels” value in [1] is “mediated a dose-dependent rescue”. Besides, the “prevention of loss of punctate NS5A distribution” value in data set [10] (added to lovastatin-treated cells) is reported as “prevented the loss of the punctate distribution”.
